Results reported in patent publication US20240398709A1, “DRY POWDER FOAMABLE FORMULATIONS FOR DELIVERY OF MEDICAMENTS THROUGH THE MUCOSA” (priority 2021, published 2024).

Legend:
[1] = after amifostine injection; animal study; cited from earlier work
mouth mucosa cells = test: Uptake of drug / WR-1065 into mouth mucosa cells after oral rinse; type: in vivo, human
Method: Specifically, 125 mg of amifostine is provided as an oral rinse. The patient rinses for approximately one minute and thereafter, expels/discards the rinse. The rinse process can be repeated.

mucositis = test: Amifostine oral rinse in a patient subject to chemotherapy (prevention/treatment of mucositis); type: in vivo, human; conditions: for safety of administration: 200 mg WR-2721 (10 ml 0.09 M) or 125 mg WR-1065 (10 ml 0.09 M)
Method: In this example, a patient is subject to chemotherapy as part of a treatment plan for head and neck cancer. The patient presents multiple squamous cell carcinoma tumors in the throat and larynx. The patient is administered amifostine for use after each chemotherapy session (e.g., for oral rinse within 15 minutes to two hours after chemotherapy).
The amifostine is administered to the patient in the formulation described above (Table 2). […] The patient rinses for approximately one minute and thereafter, expels/discards the rinse. The rinse process can be repeated.

[2] = system: epirubicin-induced oral mucositis; conditions: patients with epirubicin-induced oral mucositis; cited from earlier work
[3] = cited from earlier work
[4] = following intravenous administration; cited from earlier work

Structure (SMILES)	time of maximum tissue concentrations of WR-1065 [1]	WR-1065 concentration in washed, isolated, vital mouth mucosa cells (mouth mucosa cells)	safety of administration (mucositis)	systemic side-effects (mucositis; oral rinse)	tolerability (mucositis; oral rinse)	difference between patients given amifostine oral rinse and control [2]	pH of maximal rate of hydrolysis ([3]; hydrolysis of amifostine to WR-1065 and inorganic phosphate)	hydrolysis at neutral pH ([3]; over four hours at room temperature)	stability at gastric pH ([3]; pH from 1 to 3)	clearance from the plasma [4]
NCCCNCCS [WR-1065]	five to fifteen	3.7-19.9 ng/10^5 cells	can be safely administered	no systemic side-effects are observed	well-tolerated	–	–	–	–	–
NCCCNCCSP(=O)(O)O [amifostine, S-2-(3-aminopropylamino) ethyl dihydrogen phosphorothioate]	–	–	can be safely administered	–	–	no significant difference	3.0	no detectable hydrolysis	unstable	rapidly cleared
